{"source": "patent US6835846B2", "about": "“Aliphatic compounds, process for their preparation and their usage” (Maruha Corporation, priority 2000, dated 2004)", "key": {"Edg receptors": {"system": "Edg receptors", "assay": "Competition experiments using ^3H-AHOP on HL60 cells", "assay_type": "binding", "conditions": "for competition with ^3H-AHOP: HL60 cells, ^3H-AHOP 1 nM, unlabeled compound 10 nM, 30 nM or 100 nM, 30 minutes at 4° C.; for inhibition of binding of ^3H-AHOP (to HL60 cells): compound 1 nM, 3 nM and 10 nM, FIG. 2", "experimental": "The same premyeloblastoma cell strain HL60 expressing Edg receptors on the cell surface as used in Example 4 was used. The cells were harvested by centrifugation, then suspended in an F-12 culture medium (stored at 4° C., 10 ml), and carried into an RI laboratory. ^3H-AHOP (15 μCi/1 nM) at an end concentration of 1 nM, and an unlabeled compound (the compound of Example 2 or Example 3) at an end concentration of 10 nM, 30 nM or 100 nM were each added to 200 μl of the cell suspension (1×10^6 cells/ml F-12), and a binding test was conducted for 30 minutes at 4° C. (with occasional stirring). After centrifugation for 7 minutes at 12,000 rpm, the supernatant was rapidly (without damaging cell pellets) discarded with a micropipetter. The cell pellets were suspended in 1.5 ml of Ready Safe (Beckman), whereafter the suspension was transferred into a vial and measured for radioactivity by a liquid scintillation counter L2100 (Beckman).\nThe compounds of Example 2 and Example 3 were subjected to the same competition experiments as described above, except that they were added at concentrations of 1 nM, 3 nM and 10 nM."}, "Edg receptor": {"system": "Edg receptor", "assay": "Edg receptor response test (intracellular Ca^2+ increase by AHOP in HL60 cells)", "assay_type": "cell-based", "conditions": "for concentration at which the Ca^2+ concentration increase by AHOP was dose-dependently suppressed / increase in the intracellular Ca^2+ concentration by the addition of AHOP: HL60 cells; for concentration at which the Ca^2+ concentration increase by AHOP was dose-dependently suppressed: AHOP 1 μM, FIG. 1; for increase in the intracellular Ca^2+ concentration by the addition of AHOP: test substance 30 μM, then AHOP 1 μM", "text": "HL 60 cells were obtained from a cell bank, and subcultured for about 50 passages over a half-year period in accordance with the method described in BBRC '98, 263, p. 253 using an RPMI-1640 culture medium (Gibco) containing 10% fetal bovine serum to prepare a premyeloblastoma cell strain HL60 expressing Edg receptors on the cell surface. Using the premyeloblastoma cell strain HL60 expressing Edg receptors on the cell surface, the cell response of test substances was investigated. An increase in the intracellular Ca^2+ concentration was measured as an indicator of cell response. It is reported that when the Edg receptor on the HL60 cell surface is bound to AHOP, it phosphorylates G protein to activate IP3 kinase, whereafter the intracellular Ca^2+ concentration increases (FEBS Letter '96, 379, p. 260, BBRC '98, 253, p. 253). Thus, the intracellular Ca^2+ concentration serves as an indicator of Edg receptor response.\nA Ca^2+ chelating reagent, Fura-2AM, was taken into HL60 cells.\nA cell suspension (1.2 ml) was charged into a quartz cell, which was then mounted on a fluorometer LS50B (Perkin Elmer, for cell measurement). An excitation wavelength was alternately switched between 340 nm (exciting Fura-2 having chelated Ca^2+) and 380 nm (exciting unreacted Fura-2) at intervals of 0.5 milli second, and fluorescence intensity at 510 nm was measured.\nEach test substance was added at an end concentration of 30 μM by means of a microsyringe, and then fluorescence intensity was traced to investigate whether Ca^2+ would increase or not. It was also confirmed whether Ca^2+ would increase or not when AHOP (1 μM) was added after addition of the test substance. Through these tests, the AHOP antagonism of each substance was studied.\nSuramin, already confirmed to have antagonistic action, was used as a comparison. The experimental procedure was the same as described above, except that AHOP (1 μM) was added after addition of the test substance at varying concentration. An increase in the Ca^2+ concentration was evaluated by an increased Ca^2+ concentration (%) as a value relative to the increased Ca^2+ concentration in a negative control group (no drug added)."}, "[1]": {"system": "endothelial cell-neutrophil interaction", "assay": "Anti-inflammatory tests using pseudo-blood vessel model (neutrophil transmigration and adhesion)", "assay_type": "cell-based, bovine", "conditions": "for neutrophil transmigration and adhesion: 0.1 and 1 microM compound, 10 microM AHOP in lower compartment, FIG. 4", "experimental": "Transwells were used, each consisting of an upper compartment separated from a lower compartment by a porous membrane. A single layer of bovine endothelial cells was cultured on the porous membrane at the bottom surface of the transwell upper compartment. A suspension of fluorescence-labeled neutrophils was added to the transwell upper compartment, and AHOP was suspended within the lower compartment to an end concentration of 0.1 to 10 microM. That is, a pseudo-blood vessel in vitro inflammation model was thus constructed in which the upper compartment and the lower compartment of the transwell were isolated from each other via the endothelial layer, and the upper compartment corresponded to the interior of a blood vessel, while the lower compartment corresponded to the site of inflammation outside the blood vessel. Measurements were made of the number of the neutrophils passing from the upper compartment into the lower compartment through the endothelial layer, and the number of the neutrophils adhering to the endothelial layer. […] That is, AHOP was considered to act as an inflammation-inducing substance.\nThat is, the compound of Example 2 or 3 was added in an amount of 0.01 to 1 microM to the upper compartment or lower compartment of the transwell, and 10 microM AHOP was placed in the lower compartment to induce inflammation. As a control, inflammation was induced in the same way as above but without addition of any compounds of the invention.\nMeasurements were made of the number of the neutrophils passing from the upper compartment into the lower compartment through the endothelial layer, and the number of the neutrophils adhering to the endothelial layer. A relative neutrophil count (%) was calculated from the following equation:\nRelative neutrophil count (%)=[number of neutrophils (passing and adhering) in the experimental group]/[number of neutrophils (passing and adhering) in the control]×100"}, "[2]": {"system": "vascular smooth muscle cells", "assay": "Action on vascular smooth muscle growth (BrdU assay)", "assay_type": "cell-based", "conditions": "rat vascular smooth muscle cells, sphingosylphosphorylcholine 10 μM, 24 hours, FIG. 3", "experimental": "Thus, the actions of the compounds of Examples 2 and 3 on the growth of vascular smooth muscle cells were measured in the manner described below. Suramin confirmed to have Edg receptor antagonism was used as a positive control.\nThe rat carotid intima was rubbed by ballooning, and a tissue fragment was cultured by explant culture. Two weeks later, vascular smooth muscle cells harvested were cultured in a DMEM culture medium (Gibco) containing 10% fetal bovine serum. The cultures were subcultured several times for stabilization, whereafter the subcultures were seeded at a cell density of 5×10^3 cells/cm^2 for use in experiments.\nAlong with the growth factor sphingosylphosphorylcholine (10 μM), the compound of Example 2 or 3, or suramin was added to the cells, and 24 hours later, the cell density was measured by BrdU assay (Science '82, 218, p. 474, Cytometry '85, 6, p. 584)."}, "[3]": {"system": "myocardial infarction due to reperfusion following ligation of the rabbit coronary artery", "assay": "Ligation-associated myocardial infarction model", "assay_type": "in vivo", "experimental": "The compound of Example 2 was used as a test substance for investigating its effect on myocardial infarction due to reperfusion following ligation of the rabbit coronary artery. Male NZW rabbits (weighing 2.83 to 3.20 kg) were purchased from Kitayama Labes, Co. Ltd., and bred and raised under the conditions: room temperature 20-26° C., humidity 40-70%, and illumination time 12 hours/day (7-19:00). The animals were allowed food and water ad libitum, and quarantined and acclimatized for 2 weeks or more. Then, the animals in good health were used. The above rabbits were administered 10 mg/kg of the compound of Example 2 through the jugular vein under anesthesia, and then the compound of Example 2 was continuously infused in a dose of 6.9 micro g/kg/min. In a control group, physiological saline (hereinafter referred to as PS) was administered in the same manner as in the experimental group. Then, coronary artery was ligated for 30 minutes, whereafter the ligature was released for reperfusion, and the blood pressure in the carotid artery, the pulse rate and the number of arrhythmias were measured. The carotid arterial blood pressure and pulse rate were measured before administration, during continuous intravenous infusion, during the ligation period (15 minute later and 30 minutes later), and during reperfusion. The carotid arterial blood pressure was calculated as mean blood pressure. The number of arrhythmias was counted as the number of extrasystoles that appeared during the ligation period (for 30 minutes) or during reperfusion. After 3 hours of reperfusion, the heart was removed, and sliced into 6 pieces. The living tissues were stained with 2,3,5-triphenyltetrazolium […] (TTC), the area of the infarct due to ligation was measured, and the percent of the infarct with respect to the area of the left ventricle was calculated."}, "cancer cell strain F10": {"system": "cancer cell strain F10", "conditions": "F10 cells; AHOP concentration of 10^−8 to 10^−6 M; maximum; cited from earlier work"}, "[4]": {"conditions": "rabbit acute myocardial infarction models"}, "[5]": {"conditions": "rabbit, 10 mg/kg jugular vein then 6.9 micro g/kg/min infusion"}, "[6]": {"conditions": "rabbit, 10 mg/kg then 6.9 micro g/kg/min, ligation 15 min"}, "[7]": {"conditions": "rabbit, 10 mg/kg then 6.9 micro g/kg/min, ligation 30 min"}, "[8]": {"conditions": "rabbit, 10 mg/kg then 6.9 micro g/kg/min, reperfusion 180 min"}, "[9]": {"conditions": "rabbit, baseline before administration"}}}
{"smiles": "CCCCCCCCCCCCCCC(O)C(=O)N[C@@H](CO)[C@H](O)/C=C/CCCC(C)CCCCCCCCC", "note": "(stereo partly drawn) [Example 3, (4E,2S,3R,2′RS)-N-2′-hydroxyhexadecanoyl-9-methyl-4-octadecene-1,3-diol]", "values": [{"measurement": "melting point", "value": "52 to 57", "unit": "°C"}, {"measurement": "competition with ^3H-AHOP", "setting": "Edg receptors", "value": "competitive with ^3H-AHOP"}, {"measurement": "inhibition of binding of ^3H-AHOP (to HL60 cells)", "setting": "Edg receptors", "value": "Dose-dependent inhibition"}, {"measurement": "concentration at which the Ca^2+ concentration increase by AHOP was dose-dependently suppressed", "setting": "Edg receptor", "value": "0.3 to 3", "unit": "µM"}, {"measurement": "increase in the intracellular Ca^2+ concentration by the addition of AHOP", "setting": "Edg receptor", "value": "inhibited"}, {"measurement": "neutrophil transmigration and adhesion", "setting": "[1]", "value": "suppressed"}, {"measurement": "concentrations at which vascular smooth muscle growth was inhibited", "setting": "[2]", "value": "1 to 10", "unit": "µM"}]}
{"smiles": "CCCCCCCCCCCCCC[C@H](O)C(=O)N[C@H](CO)[C@@H](O)/C=C/CC/C=C(\\C)CCCCCCCCC", "note": "[Example 2, (4E,8E,2R,3S,2′S)-N-2′-hydroxyhexadecanoyl-9-methyl-4.8-octadecadiene-1,3-diol]", "values": [{"measurement": "competition with ^3H-AHOP", "setting": "Edg receptors", "value": "competitive with ^3H-AHOP"}, {"measurement": "inhibition of binding of ^3H-AHOP (to HL60 cells)", "setting": "Edg receptors", "value": "Dose-dependent inhibition"}, {"measurement": "strength of the action in comparison with suramin (ED50)", "setting": "Edg receptor; ED50 for intracellular Ca^2+ increase", "value": "about 40 times"}, {"measurement": "concentration at which the Ca^2+ concentration increase by AHOP was dose-dependently suppressed", "setting": "Edg receptor", "value": "0.03 to 0.3", "unit": "µM"}, {"measurement": "increase in the intracellular Ca^2+ concentration by the addition of AHOP", "setting": "Edg receptor", "value": "inhibited"}, {"measurement": "ligation-associated decrease in pulse rate (in words)", "setting": "[3]; [4]", "value": "tended to inhibit"}, {"measurement": "number of arrhythmias due to ligation (in words)", "setting": "[3]; [4]", "value": "reduce the number of arrhythmias due to ligation"}, {"measurement": "percent area of the infarct (in words)", "setting": "[3]; [4]", "value": "tendency toward decreasing"}, {"measurement": "Mean blood pressure, continued i.v. infusion", "setting": "[3]; [5]", "value": "74 ± 9", "unit": "mmHg"}, {"measurement": "Pulse rate, continued i.v. infusion", "setting": "[3]; [5]", "value": "283 ± 10", "unit": "beats/min"}, {"measurement": "Mean blood pressure, ligation 15 min", "setting": "[3]; [6]", "value": "59 ± 10", "unit": "mmHg"}, {"measurement": "Pulse rate, ligation 15 min", "setting": "[3]; [6]", "value": "270 ± 9", "unit": "beats/min"}, {"measurement": "Mean blood pressure, ligation 30 min", "setting": "[3]; [7]", "value": "66 ± 8", "unit": "mmHg"}, {"measurement": "Pulse rate, ligation 30 min", "setting": "[3]; [7]", "value": "282 ± 4", "unit": "beats/min"}, {"measurement": "Mean blood pressure, reperfusion 180 min", "setting": "[3]; [8]", "value": "68 ± 4", "unit": "mmHg"}, {"measurement": "Pulse rate, reperfusion 180 min", "setting": "[3]; [8]", "value": "256 ± 10", "unit": "beats/min"}, {"measurement": "Infarct/left ventricle (percent area of the infarct)", "setting": "[3]; rabbit, after 3 hours of reperfusion, TTC staining", "value": "14.0 ± 2.1", "unit": "%"}, {"measurement": "Mean blood pressure, before administration", "setting": "[3]; [9]", "value": "83 ± 4", "unit": "mmHg"}, {"measurement": "Pulse rate, before administration", "setting": "[3]; [9]", "value": "301 ± 9", "unit": "beats/min"}, {"measurement": "number of arrhythmias, reperfusion", "setting": "[3]; rabbit, extrasystoles during reperfusion", "value": "17 ± 6"}, {"measurement": "number of arrhythmias, ligation", "setting": "[3]; rabbit, extrasystoles during the ligation period (30 minutes)", "value": "12 ± 5"}, {"measurement": "neutrophil transmigration and adhesion", "setting": "[1]", "value": "suppressed"}, {"measurement": "concentrations at which vascular smooth muscle growth was inhibited", "setting": "[2]", "value": "0.3 to 3", "unit": "µM"}]}
{"smiles": "CCCCCCCCCCCCCC[C@H](O)C(=O)N[C@H](CO)[C@@H](O)/C=C/CC/C=C(\\C)CCCCCCCCC", "note": "[Example 1, (4E,8E,2R,3S,2′S)-N-2′-hydroxyhexadecanoyl-9-methyl-4,8-octadecadiene-1,3-diol]", "values": [{"measurement": "melting point", "value": "62 to 63", "unit": "°C"}]}
{"smiles": "CCCCCCCCCCCCCC=CC(O)C(N)COP(=O)(O)O", "note": "(stereo not drawn) [AHOP, 2-amino-3-hydroxy-4-octadecene-1-phosphate, reference compound]", "values": [{"measurement": "suppression of migration", "setting": "cancer cell strain F10", "value": "~80", "unit": "%"}, {"measurement": "transmigration through the endothelial layer and adhesion of the neutrophils (inflammation-inducing action)", "setting": "[1]; AHOP 10 microM in lower compartment", "value": "promoted significantly"}]}
